From US10028956B2, “Methods of treating various cancers using an AXL/cMET inhibitor in combination with other agents” (Ignyta, Inc., priority 2013, dated 2018)
Marks after values point to notes of the source that are not given here.

Experiments:
[1] = tested on: CTG-0157 primary NSCLC human TumorGraft; assay: NSCLC TumorGraft model CTG-0157; format: in vivo, mice; conditions: CTG-0157, 14 days
Description: (§1) Methods (for the experiments shown in FIGS. 10 and 11) • Female immunocompromised nu/nu mice (Harlan) between 6-9 weeks of age were housed on irradiated papertwist-enriched ⅛″ corncob bedding (Sheperd) in individual HEPA ventilated cages (Innocage® IVC, Innovive USA) on a 12-hour light-dark cycle at 68-74° F. (20-23° C.) and 30-70% humidity. Animals were fed water ad libitum (reverse osmosis, 2 ppm Cl2) and an irradiated Test rodent diet (Teklad 2919) consisting of 19% protein, 9% fat, and 4% fiber. • Tumor Models: Champions TumorGraft models of NSCLC are owned by Champions Oncology. In this study, animals were implanted unilaterally on the right flank with tumor fragments harvested from host animals. […] Erlotinib (manufacturer: OSI Pharmaceuticals; National Drug Code: 50242-062-01; Lot #: US0002) was formulated using 100% PEG-400 as the vehicle according to manufacturer's specifications.
Efficacy measurements: Beginning Day 0, tumor dimensions were measured twice weekly by digital caliper (Fowler Ultra-Cal IV) and data including individual and mean estimated tumor volumes (Mean TV±SEM) were recorded for each group; tumor volume was calculated using the formula TV=width^2×length×0.52. At study completion, percent tumor growth inhibition (% TGI) values were calculated and reported for each treatment group (T) versus control (C) using initial (i) and final (f) tumor measurements by the formula: % TGI=1−Tf−Ti/Cf−C; single agent or combination therapies resulting in a TGI>50 at study completion are considered active in the tested model at the evaluated treatment regimen according to NCI guidelines. […] If the PR persisted until study completion, percent tumor regression (% TR) was determined using the formula: % TR=1−Tf/Ti×100; a mean value was calculated if multiple PR mice occurred in one group. […] Statistical differences in tumor volume were determined using a two-tailed One-Way Analysis of Variance (ANOVA) followed by the Dunett's multiple comparisons test comparing treated groups with control and combinations with standard agent alone when possible. […]

[2] = tested on: CTG-0170 erlotinib-insensitive primary NSCLC human TumorGraft; assay: NSCLC TumorGraft model CTG-0170; format: in vivo, mice; conditions: for % Tumor Growth Inhibition: CTG-0170, 10 days
Description: as §1
(§2) Efficacy measurements: Beginning Day 0, tumor dimensions were measured twice weekly by digital caliper (Fowler Ultra-Cal IV) and data including individual and mean estimated tumor volumes (Mean TV±SEM) were recorded for each group; tumor volume was calculated using the formula TV=width^2×length×0.52. At study completion, percent tumor growth inhibition (% TGI) values were calculated and reported for each treatment group (T) versus control (C) using initial (i) and final (f) tumor measurements by the formula: % TGI=1−Tf−Ti/Cf−C; single agent or combination therapies resulting in a TGI>50 at study completion are considered active in the tested model at the evaluated treatment regimen according to NCI guidelines. Individual mice reporting a tumor volume ≤50% of the Day 0 measurement for two consecutive measurements over a seven day period were considered partial responders (PR). If the PR persisted until study completion, percent tumor regression (% TR) was determined using the formula: % TR=1−Tf/Ti×100; a mean value was calculated if multiple PR mice occurred in one group. Individual mice lacking palpable tumors (<4×4 mm^2 for two consecutive measurements over a seven day period) were classified as complete responders (CR); a CR that persisted until study completion was considered a tumor-free survivor (TFS). TFS animals are excluded from efficacy calculations. Statistical differences in tumor volume were determined using a two-tailed One-Way Analysis of Variance (ANOVA) followed by the Dunett's multiple comparisons test comparing treated groups with control and combinations with standard agent alone when possible. All data collected in this study was managed electronically and stored on a redundant server system.

c-Met = c-Met (Homo sapiens, UniProt P08581); assay: Cellular c-Met inhibition in GTL-16 cells; format: cell-based; design: endogenous in cells; host or cells: GTL-16 human gastric carcinoma cells
Chain of c-Met (P08581 25-1390): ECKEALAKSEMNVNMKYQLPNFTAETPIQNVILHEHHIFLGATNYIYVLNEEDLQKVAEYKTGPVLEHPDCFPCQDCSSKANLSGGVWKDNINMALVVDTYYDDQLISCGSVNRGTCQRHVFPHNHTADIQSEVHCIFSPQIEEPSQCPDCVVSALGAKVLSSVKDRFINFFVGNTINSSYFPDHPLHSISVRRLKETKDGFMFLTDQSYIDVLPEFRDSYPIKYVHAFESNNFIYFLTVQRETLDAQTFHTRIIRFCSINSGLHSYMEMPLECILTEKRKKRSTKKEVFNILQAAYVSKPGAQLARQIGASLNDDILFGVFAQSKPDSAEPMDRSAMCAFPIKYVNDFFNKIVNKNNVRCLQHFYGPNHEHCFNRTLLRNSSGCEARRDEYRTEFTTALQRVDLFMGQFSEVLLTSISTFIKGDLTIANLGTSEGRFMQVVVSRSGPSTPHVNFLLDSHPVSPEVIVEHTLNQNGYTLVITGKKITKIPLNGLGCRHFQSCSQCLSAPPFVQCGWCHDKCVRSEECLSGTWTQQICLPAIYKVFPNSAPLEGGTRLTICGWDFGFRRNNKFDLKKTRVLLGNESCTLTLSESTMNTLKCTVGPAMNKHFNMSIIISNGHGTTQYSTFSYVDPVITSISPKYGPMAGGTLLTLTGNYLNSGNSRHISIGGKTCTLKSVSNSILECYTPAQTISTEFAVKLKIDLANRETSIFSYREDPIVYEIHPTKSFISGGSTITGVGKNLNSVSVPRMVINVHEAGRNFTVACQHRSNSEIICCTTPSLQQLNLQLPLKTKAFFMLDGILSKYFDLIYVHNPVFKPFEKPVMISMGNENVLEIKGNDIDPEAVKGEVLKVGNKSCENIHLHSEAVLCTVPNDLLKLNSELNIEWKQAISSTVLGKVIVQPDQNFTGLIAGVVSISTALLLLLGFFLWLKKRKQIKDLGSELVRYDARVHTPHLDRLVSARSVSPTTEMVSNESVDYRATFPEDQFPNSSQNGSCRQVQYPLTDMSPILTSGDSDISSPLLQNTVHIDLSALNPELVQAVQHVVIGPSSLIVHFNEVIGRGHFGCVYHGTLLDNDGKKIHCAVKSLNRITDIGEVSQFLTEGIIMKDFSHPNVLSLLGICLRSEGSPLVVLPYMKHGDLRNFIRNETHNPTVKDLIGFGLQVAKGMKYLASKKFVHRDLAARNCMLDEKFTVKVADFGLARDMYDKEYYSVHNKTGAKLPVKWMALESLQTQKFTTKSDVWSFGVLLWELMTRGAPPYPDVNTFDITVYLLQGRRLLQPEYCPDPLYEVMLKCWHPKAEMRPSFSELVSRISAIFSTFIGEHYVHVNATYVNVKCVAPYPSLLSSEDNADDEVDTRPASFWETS

[3] = tested on: CTG-0165 erlotinib-insensitive primary NSCLC human TumorGraft; assay: NSCLC TumorGraft model CTG-0165; format: in vivo, mice; conditions: for % Tumor Growth Inhibition: CTG-0165, 37 days
Description: as §1, §2

[4] = tested on: 4T1-Luc2 murine mammary carcinoma cells; assay: 4T1-Luc2 systemic dissemination; format: in vivo, mice
Description: The murine breast cancer cell line 4T1-luciferase tagged cell line generated by stable transfection of the firefly luciferase gene expressed from the SV40 promoter was purchased from Caliper Life Sciences. The cells were grown in DMEM medium supplemented with 10% fetal bovine serum (FBS, Cat^# SH3007003, Hyclone, Logan, Utah). D-Luciferin firefly/potassium salt (Cat. # L-8220) was purchased from Biosynth International, Inc., Itasca, Ill.). Female Balb-c mice (6-8 weeks) were purchased from Charles River laboratories. […] Two days later, the mouse body weights were measured twice a week and the mice were subjected for full body in vivo imaging thrice a week. Treatments were given for a total of 23 days, with 21 days post tumor cell seeding. Bioluminescence image analysis was performed at the end of the study using a Caliper Life Sciences (Xenogen) Spectrum in vivo imaging machine. Each cage of five mice was anesthetized using isofluorane and imaged for a series of time points from 0.5-5 minutes max. Image analysis was performed using Living Image Software (vs. 4.0, 2010) using subjective but equally sized gates or regions of interest (ROIs) overlaid on each animal image. Counts were converted to average radiance or mean photon flux; expressed as photons per second per cm2 of surface area, (p/s/cm2/sr). […]

[5] = tested on: CTG-0192 erlotinib-sensitive NSCLC TumorGraft; assay: NSCLC TumorGraft model CTG-0192; format: in vivo, mice; conditions: for % Tumor Growth Inhibition: CTG-0192, 32 days
Description: as §1, §2

SMILES: COc1cc2nccc(Oc3ccc(NC(=O)c4cn(C(C)C)c(=O)n(-c5ccc(F)cc5)c4=O)cc3F)c2cc1OC [CEP-40783, 3-(4-Fluorophenyl)-1-isopropyl-2,4-dioxo-1,2,3,4-tetrahydropyrimidine-5-carboxylic acid [4-(6,7-dimethoxyquinolin-4-yloxy)-3-fluorophenyl]-amide]
- % Tumor Growth Inhibition ([1]; 10 mg/kg po/qd): 3%
- % Tumor Growth Inhibition ([1]; 30 mg/kg po/qd): 85%*†
- % Tumor Growth Inhibition ([2]; 10 mg/kg po/qd): 104%*†
- % Tumor Growth Inhibition ([2]; 30 mg/kg po/qd): 107%*†
- efficacy in erlotinib-insensitive TumorGraft ([2]; CTG-0170, oral 10 mg/kg and 30 mg/kg): tumor regressions
- IC50 (c-Met): 6 nM
- % Tumor Growth Inhibition ([3]; 10 mg/kg po/qd): 116%*†
- % Tumor Growth Inhibition ([3]; 30 mg/kg po/qd): 118%*†
- efficacy in erlotinib-insensitive TumorGraft ([3]; CTG-0165, oral 10 mg/kg and 30 mg/kg): tumor regressions
- systemic 4T1 mammary tumor dissemination ([4]; 1 mg/kg po qd): significant, albeit of lesser magnitude, reduction
- systemic 4T1 mammary tumor dissemination ([4]; 10 mg/kg and 30 mg/kg po qd): highly significant reductions
- acquired resistance during the treatment phase ([5]; CTG-0192): no acquired resistance
- % Tumor Growth Inhibition ([5]; 10 mg/kg po/qd): 85%*
- % Tumor Growth Inhibition ([5]; 30 mg/kg po/qd): 71%*
- tumor response, single agent ([5]; CTG-0192, also after dosing discontinued (day 34)): significant TGI/tumor stasis was maintained even after dosing was discontinued
